What is called mass density is mass per unit of volume. One may read the viscosity as the internal friction of a fluid under shear.

The conditions of the data set: 101.33 kPa, Liquid; for viscosity: Capillary tube (Ostwald / Ubbelohde) method.

Numbers after ± are expanded uncertainties.

As for `CCC(O)CO` (configuration not stated) [1,2-butanediol], the mass density runs as follows: (293.15 K) 1002.43 ± 0.54 kg/m3; (303.15 K) 994.98 ± 0.54 kg/m3; (313.15 K) 987.39 ± 0.55 kg/m3; (323.15 K) 979.64 ± 0.56 kg/m3. For the same compound, the viscosity is, setting by setting: (293.15 K) 71.87 ± 0.69 mPa·s; (303.15 K) 37.86 ± 0.28 mPa·s; (313.15 K) 21.49 ± 0.16 mPa·s; (323.15 K) 13.12 ± 0.1 mPa·s.
Consider `CCCCC(O)CO` (configuration not stated) [1,2-hexanediol], for which the mass density stood at 951.86 ± 2.3 kg/m3 (293.15 K), 944.66 ± 2.3 kg/m3 (303.15 K), 937.34 ± 2.3 kg/m3 (313.15 K) and 929.9 ± 2.3 kg/m3 (323.15 K). In addition, the viscosity (293.15 K) is 83.41 ± 1.6 mPa·s, the viscosity (303.15 K) stood at 42.25 ± 0.67 mPa·s, the viscosity (313.15 K) is given as 24.12 ± 0.39 mPa·s and the viscosity (323.15 K) was 14.79 ± 0.24 mPa·s.
As to `CCCC(O)CO` (configuration not stated) [1,2-pentanediol], the viscosity is on record as 76.96 ± 2.1 mPa·s (293.15 K), 39.16 ± 1 mPa·s (303.15 K), 22.52 ± 0.58 mPa·s (313.15 K) and 13.66 ± 0.35 mPa·s (323.15 K). For the same compound, the mass density is given as 970.35 ± 5.1 kg/m3 (293.15 K, Vibrating tube method); 963.07 ± 5 kg/m3 (303.15 K, Vibrating tube method); 955.65 ± 5 kg/m3 (313.15 K, Vibrating tube method); 948.12 ± 4.9 kg/m3 (323.15 K, Vibrating tube method).
As for `CC(O)CO` (configuration not stated) [1,2-propanediol], the mass density runs as follows: (293.15 K) 1036.3 ± 0.6 kg/m3; (303.15 K) 1028.92 ± 0.58 kg/m3; (313.15 K) 1021.39 ± 0.57 kg/m3; (323.15 K) 1013.7 ± 0.56 kg/m3. Moreover, the viscosity (293.15 K) came out at 56.21 ± 0.32 mPa·s, the viscosity (303.15 K) was 32.63 ± 0.24 mPa·s, the viscosity (313.15 K) amounted to 19.58 ± 0.15 mPa·s and the viscosity (323.15 K) worked out at 12.79 ± 0.1 mPa·s.

The values are drawn from the NIST ThermoML archive (doi:10.1016/j.jct.2008.01.022).
